One may read the inhibition as the change of the read-out against control, counted positive when it falls.

From ChEMBL document CHEMBL4256946, “Thiourea compounds and their use as inhibitors of sirt2 or sirt5” (2016) come the findings set out here.

For assay [1], the target named is T1, NAD-dependent protein deacetylase sirtuin-2 (Homo sapiens) (UniProt Q8IXJ6).
T1 sequence (whole entry): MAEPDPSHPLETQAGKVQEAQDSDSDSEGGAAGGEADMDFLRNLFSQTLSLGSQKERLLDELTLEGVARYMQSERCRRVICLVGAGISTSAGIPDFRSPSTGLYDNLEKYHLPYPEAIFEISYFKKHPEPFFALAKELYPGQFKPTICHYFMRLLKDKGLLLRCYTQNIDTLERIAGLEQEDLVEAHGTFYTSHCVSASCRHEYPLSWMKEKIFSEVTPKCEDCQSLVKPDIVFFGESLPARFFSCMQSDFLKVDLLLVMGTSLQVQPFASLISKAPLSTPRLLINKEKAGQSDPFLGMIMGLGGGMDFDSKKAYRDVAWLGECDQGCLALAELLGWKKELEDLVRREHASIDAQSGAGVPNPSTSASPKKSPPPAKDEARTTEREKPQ
Put plainly: Inhibition of SIRT2 (unknown origin) assessed as reduction in enzyme-catalyzed desuccinylation reaction at 256 uM.

For assay [2], the target named is NAD-dependent protein deacylase sirtuin-5, mitochondrial (Homo sapiens) (UniProt Q9NXA8). In words: Substrate activity at SIRT5 (unknown origin) assessed as compound-NAD covalent intermediate formation by measuring (S)-3,11-dioxo-1-phenyl-5-(phenylcarbamoyl)-2-oxa-4,10,12-triazapentadecan-15-oic acid level measured after 18 hrs by liquid chromatography-mass spectrometry method.
Chain of NAD-dependent protein deacylase sirtuin-5, mitochondrial (Homo sapiens) (Q9NXA8 37-310 limits assumed): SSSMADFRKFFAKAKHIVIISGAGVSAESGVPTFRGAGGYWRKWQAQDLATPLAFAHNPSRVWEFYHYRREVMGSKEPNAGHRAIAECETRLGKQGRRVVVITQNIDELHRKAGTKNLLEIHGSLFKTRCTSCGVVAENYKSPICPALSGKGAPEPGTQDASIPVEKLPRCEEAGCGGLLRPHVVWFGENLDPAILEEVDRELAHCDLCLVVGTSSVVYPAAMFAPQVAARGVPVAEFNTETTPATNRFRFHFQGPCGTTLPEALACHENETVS

For assay [3] the target is unchanged. In words: Substrate activity at SIRT5 (unknown origin) assessed as compound-NAD covalent intermediate formation by measuring 2-((2R,3R,4S,5R)-5-((((((2R,3S,4R,5R)-5-(6-amino-9H-purin-9-yl)-3,4-dihydroxytetrahydrofuran-2-yl)methoxy)(hydroxy)phosphoryloxy)(hydroxy)phosphoryloxy)methyl)-3,4-dihydroxytetrahydrofuran-2-yl)-1-((S)-5-(benzyloxycarbonylamino)-6-oxo-6-(phenylamino)hexyl)-3-(2-carboxyethyl)isothiouronium level measured after 15 mins by liquid chromatography-mass spectrometry method.

Assay [4] shares this target. In words: Substrate activity at SIRT5 (unknown origin) assessed as compound-NAD covalent intermediate formation by measuring 3-((3aR,5R,6R,6aR)-5-((((((2R,3S,4R,5R)-5-(6-amino-9H-purin-9-yl)-3,4-dihydroxytetrahydrofuran-2-yl)methoxy)(hydroxy)phosphoryloxy)(hydroxy)phosphoryloxy)methyl)-2-((S)-5-(benzyloxycarbonylamino)-6-oxo-6-(phenylamino)hexylamino)-6-hydroxytetrahydrofuro[2,3-d][1,3]oxathiol-2-ylamino)propanoic acid level measured after 5 hrs by liquid chromatography-mass spectrometry method.

Assay [5] shares this target. In words: Substrate activity at SIRT5 (unknown origin) assessed as compound-NAD covalent intermediate formation by measuring 2-((2R,3R,4S,5R)-5-((((((2R,3S,4R,5R)-5-(6-amino-9H-purin-9-yl)-3,4-dihydroxytetrahydrofuran-2-yl)methoxy)(hydroxy)phosphoryloxy)(hydroxy)phosphoryloxy)methyl)-3,4-dihydroxytetrahydrofuran-2-yl)-1-((S)-5-(benzyloxycarbonylamino)-6-oxo-6-(phenylamino)hexyl)-3-(2-carboxyethyl)isothiouronium level measured after 5 hrs by liquid chromatography-mass spectrometry method.

For assay [6] the target is unchanged. In words: Substrate activity at SIRT5 (unknown origin) assessed as compound-NAD covalent intermediate formation by measuring parent compound consumption measured after 18 hrs by liquid chromatography-mass spectrometry method.
Assay [7] has the same target. In words: Substrate activity at SIRT5 (unknown origin) assessed as compound-NAD covalent intermediate formation by measuring 2-((2R,3R,4R,5R)-5-((((((2R,3S,4R,5R)-5-(6-amino-9H-purin-9-yl)-3,4-dihydroxytetrahydrofuran-2-yl)methoxy)(hydroxy)phosphoryloxy)(hydroxy)phosphoryloxy)methyl)-4-hydroxy-2-mercaptotetrahydrofuran-3-yl)-1-((S)-5-(benzyloxycarbonylamino)-6-oxo-6-(phenylamino)hexyl)-3-(2-carboxyethyl)isouronium level measured after 15 mins by liquid chromatography-mass spectrometry method.

The target is the same in assay [8]. In words: Substrate activity at SIRT5 (unknown origin) assessed as compound-NAD covalent intermediate formation by measuring 3-((3aR,5R,6R,6aR)-5-((((((2R,3S,4R,5R)-5-(6-amino-9H-purin-9-yl)-3,4-dihydroxytetrahydrofuran-2-yl)methoxy)(hydroxy)phosphoryloxy)(hydroxy)phosphoryloxy)methyl)-2-((S)-5-(benzyloxycarbonylamino)-6-oxo-6-(phenylamino)hexylamino)-6-hydroxytetrahydrofuro[2,3-d][1,3]oxathiol-2-ylamino)propanoic acid level measured after 15 mins by liquid chromatography-mass spectrometry method.

The target is the same in assay [9]. In words: Substrate activity at SIRT5 (unknown origin) assessed as compound-NAD covalent intermediate formation by measuring 2-((2R,3R,4R,5R)-5-((((((2R,3S,4R,5R)-5-(6-amino-9H-purin-9-yl)-3,4-dihydroxytetrahydrofuran-2-yl)methoxy)(hydroxy)phosphoryloxy)(hydroxy)phosphoryloxy)methyl)-4-hydroxy-2-mercaptotetrahydrofuran-3-yl)-1-((S)-5-(benzyloxycarbonylamino)-6-oxo-6-(phenylamino)hexyl)-3-(2-carboxyethyl)isouronium level measured after 7 hrs by liquid chromatography-mass spectrometry method.

Assay [10] has as its target T2, NAD-dependent protein deacetylase sirtuin-1 (Homo sapiens) (UniProt Q96EB6).
T2 sequence (whole entry): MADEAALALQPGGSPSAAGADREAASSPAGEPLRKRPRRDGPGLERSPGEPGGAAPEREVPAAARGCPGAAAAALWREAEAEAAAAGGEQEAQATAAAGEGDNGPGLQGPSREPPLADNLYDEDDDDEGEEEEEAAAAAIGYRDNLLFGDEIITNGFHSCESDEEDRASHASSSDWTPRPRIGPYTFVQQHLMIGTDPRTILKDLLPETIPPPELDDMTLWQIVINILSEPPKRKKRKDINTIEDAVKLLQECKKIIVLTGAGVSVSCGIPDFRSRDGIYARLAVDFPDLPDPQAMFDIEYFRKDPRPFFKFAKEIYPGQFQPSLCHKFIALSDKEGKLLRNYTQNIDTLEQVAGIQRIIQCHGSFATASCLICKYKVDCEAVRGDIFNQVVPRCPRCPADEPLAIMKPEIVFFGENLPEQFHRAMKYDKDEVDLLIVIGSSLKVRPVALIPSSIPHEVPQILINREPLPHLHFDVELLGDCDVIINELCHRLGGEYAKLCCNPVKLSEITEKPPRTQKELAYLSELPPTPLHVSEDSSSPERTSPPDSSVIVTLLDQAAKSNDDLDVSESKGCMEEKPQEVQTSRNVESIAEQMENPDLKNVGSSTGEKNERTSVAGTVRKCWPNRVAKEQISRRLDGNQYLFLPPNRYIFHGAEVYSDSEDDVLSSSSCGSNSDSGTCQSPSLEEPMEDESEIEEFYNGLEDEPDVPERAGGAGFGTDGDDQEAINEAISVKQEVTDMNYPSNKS
In words: Inhibition of SIRT1 (unknown origin) assessed as reduction in enzyme-catalyzed desuccinylation reaction at 256 uM.

Assay [11] has as its target NAD-dependent protein deacylase sirtuin-5, mitochondrial (Homo sapiens) (UniProt Q9NXA8). Put plainly: Mechanism based inhibition of SIRT5 (unknown origin) incubated in presence of NAD for 15 mins by liquid chromatography-mass spectrometry method.
The target is the same in assay [12]. In words: Inhibition of SIRT5 (unknown origin) assessed as reduction in enzyme-catalyzed desuccinylation reaction at 200 uM.
For assay [13], the system named is MCF7. In words: Inhibition of foci formation in human MCF7 cells at 10 to 100 uM. It counts as functional, cell-based.
Assay [14] concerns the target NAD-dependent protein deacylase sirtuin-5, mitochondrial (Homo sapiens) (UniProt Q9NXA8). In words: Inhibition of SIRT5 in human MCF7 cells assessed as increase in protein succinylation level at 100 uM after 48 to 72 hrs by Western blot analysis. It is filed as cell-based. (Immunoblotting shows a protein as a band on a membrane.)
For assay [15], the system named is MDA-MB-468. In words: Inhibition of foci formation in human MDA-MB-468 cells at 10 to 100 uM. It counts as functional, cell-based.
Assay [16] deals with NAD-dependent protein deacylase sirtuin-6 (Homo sapiens, UniProt Q8N6T7). Put plainly: Inhibition of SIRT6 (unknown origin) assessed as reduction in enzyme-catalyzed desuccinylation reaction.
Chain of NAD-dependent protein deacylase sirtuin-6 (Q8N6T7 whole entry): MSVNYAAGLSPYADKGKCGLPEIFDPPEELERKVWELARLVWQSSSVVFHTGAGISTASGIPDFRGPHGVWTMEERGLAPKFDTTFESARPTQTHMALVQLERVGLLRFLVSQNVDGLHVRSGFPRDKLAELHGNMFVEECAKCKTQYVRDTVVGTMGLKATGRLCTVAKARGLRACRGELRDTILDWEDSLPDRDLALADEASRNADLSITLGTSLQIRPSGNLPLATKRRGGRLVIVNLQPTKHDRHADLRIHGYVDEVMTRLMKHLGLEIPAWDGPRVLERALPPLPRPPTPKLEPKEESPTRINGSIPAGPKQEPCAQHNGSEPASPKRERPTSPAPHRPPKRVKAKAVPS
The target in assay [17] is T3, NAD-dependent protein deacetylase sirtuin-3, mitochondrial (Homo sapiens, UniProt Q9NTG7).
T3 sequence (Q9NTG7 whole entry): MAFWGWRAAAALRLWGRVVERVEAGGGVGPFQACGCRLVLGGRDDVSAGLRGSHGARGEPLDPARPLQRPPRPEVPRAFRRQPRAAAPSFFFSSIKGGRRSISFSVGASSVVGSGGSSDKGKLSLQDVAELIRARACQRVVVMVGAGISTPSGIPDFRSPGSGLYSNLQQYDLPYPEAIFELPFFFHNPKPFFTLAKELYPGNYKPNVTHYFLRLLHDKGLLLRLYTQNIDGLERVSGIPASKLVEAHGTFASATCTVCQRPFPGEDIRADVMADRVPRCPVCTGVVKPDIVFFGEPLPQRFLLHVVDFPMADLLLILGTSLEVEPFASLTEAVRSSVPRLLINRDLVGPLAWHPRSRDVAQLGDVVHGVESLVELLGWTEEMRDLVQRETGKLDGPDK
Put plainly: Inhibition of SIRT3 (unknown origin) assessed as reduction in enzyme-catalyzed desuccinylation reaction.

Assay [18] has as its system MDA-MB-231. Put plainly: Inhibition of foci formation in human MDA-MB-231 cells at 10 to 100 uM. It counts as functional, cell-based.
Assay [19] concerns the target T4, NAD-dependent protein deacetylase sirtuin-1 (Homo sapiens, UniProt Q96EB6).
T4 sequence (Q96EB6 whole entry): T2 sequence (whole entry)
Put plainly: Inhibition of SIRT1 (unknown origin) assessed as reduction in enzyme-catalyzed desuccinylation reaction.

Assay [20] deals with T5, NAD-dependent protein deacetylase sirtuin-2 (Homo sapiens, UniProt Q8IXJ6).
T5 sequence (Q8IXJ6 whole entry): T1 sequence (whole entry)
Put plainly: Inhibition of SIRT2 (unknown origin) assessed as reduction in enzyme-catalyzed desuccinylation reaction.

Assay [21] relates to MCF7. In words: Growth inhibition of human MCF7 cells at 25 uM incubated for 10 days by crystal violet staining based assay. It is filed as functional, cell-based.
Assay [22] has as its target NAD-dependent protein deacylase sirtuin-5, mitochondrial (Homo sapiens) (UniProt Q9NXA8). Put plainly: Inhibition of SIRT5 in human HeLa cells assessed as increase in protein succinylation level at 100 uM after 24 to 48 hrs by Western blot analysis. It is filed as cell-based.

Structures are written as SMILES. Calls of active or inactive are those of the source. No cut-off for these calls is given here.

Regarding `O=C(O)CC(=S)NCCCC[C@H](NC(=O)OCc1ccccc1)C(=O)Nc1ccccc1`, the inhibition result in assay [1] and in [10] was “inactive” throughout. Besides, the result in assay [2], in assay [3], in assay [4], in assay [5], in assay [6] and in [7] was Active. The result in [8] and in [9] was Active. In addition, in [11], the inhibition entry was “Active”.
On to `CCOC(=O)CCNC(=S)NCCCC[C@H](NC(=O)OCc1ccccc1)C(=O)Nc1cccc(O)c1`, for which the inhibition is 20% in assay [12], “Dose-dependent effect” in assay [13], “Dose-dependent effect” in assay [15] and “Dose-dependent effect” in assay [18]. The inhibition entry in assay [14] is “Active”. The IC50 result in assay [16] and in assay [17] was “Not Active” each time.
Consider `O=C(O)CCNC(=S)NCCCC[C@H](NC(=O)OCc1ccccc1)C(=O)Nc1cccc(O)c1`, for which the IC50 result in assay [19], in [17] and in assay [20] was “Not Active” throughout.
Take `O=C(O)CCNC(=S)NCCCC[C@H](NC(=O)OCc1ccccc1)C(=O)NC1CCSc2ccccc21` (some centres not stated): the IC50 entry in assay [19], in assay [17] and in [20] was “Not Active” throughout. The “growth inhibition (GI)” value in assay [21] is “inactive”.
Consider `O=C(O)CCCC(=S)NCCCC[C@H](NC(=O)OCc1ccccc1)C(=O)Nc1ccccc1`, for which the inhibition result in assay [1] and in assay [10] was “inactive” each time. In assay [6], the result was inactive.
In the case of `CCOC(=O)CCNC(=S)NCCCC[C@H](NC(=O)OCc1ccccc1)C(=O)NC1CCSc2ccccc21` (some centres not stated), in [22], the inhibition entry is “Active”. Also, the “growth inhibition (GI)” value in [21] is “Active”.
For the molecule `O=C(O)CCC(=S)NCCCC[C@H](NC(=O)OCc1ccccc1)C(=O)Nc1ccccc1`, the inhibition result in [1] and in [10] was “inactive” each time.
